Measurements published in the NIST ThermoML archive (doi:10.1021/acs.jced.8b00975).
± gives the expanded uncertainty stated by the source.

Settings: Liquid, Vibrating tube method

SMILES | mass density (293.15 K, 100 kPa) [kg/m3] | mass density (293.15 K, 5000 kPa) [kg/m3] | mass density (293.15 K, 10000 kPa) [kg/m3] | mass density (293.15 K, 15000 kPa) [kg/m3] | mass density (293.15 K, 20000 kPa) [kg/m3] | mass density (293.15 K, 25000 kPa) [kg/m3] | mass density (293.15 K, 30000 kPa) [kg/m3] | mass density (293.15 K, 35000 kPa) [kg/m3] | mass density (303.15 K, 100 kPa) [kg/m3] | mass density (303.15 K, 5000 kPa) [kg/m3] | mass density (303.15 K, 10000 kPa) [kg/m3] | mass density (303.15 K, 15000 kPa) [kg/m3] | mass density (303.15 K, 20000 kPa) [kg/m3] | mass density (303.15 K, 25000 kPa) [kg/m3] | mass density (303.15 K, 30000 kPa) [kg/m3] | mass density (303.15 K, 35000 kPa) [kg/m3] | mass density (313.15 K, 100 kPa) [kg/m3] | mass density (313.15 K, 5000 kPa) [kg/m3] | mass density (313.15 K, 10000 kPa) [kg/m3] | mass density (313.15 K, 15000 kPa) [kg/m3] | other results
C=C(C)C(=O)OCCN(C)C [2-(dimethylamino)ethyl methylpropenoate] | 933.13 ± 0.54 | 936.87 ± 0.55 | 940.43 ± 0.55 | 943.83 ± 0.55 | 947.11 ± 0.56 | 950.3 ± 0.56 | 953.43 ± 0.56 | 956.52 ± 0.57 | 923.03 ± 0.54 | 926.88 ± 0.55 | 930.61 ± 0.55 | 934.24 ± 0.56 | 937.79 ± 0.56 | 941.28 ± 0.56 | 944.74 ± 0.57 | 948.19 ± 0.57 | 914.01 ± 0.54 | 917.99 ± 0.55 | 921.97 ± 0.55 | 925.87 ± 0.56 | mass density (313.15 K, 20000 kPa): 929.71 ± 0.56 kg/m3; mass density (313.15 K, 25000 kPa): 933.48 ± 0.57 kg/m3; mass density (313.15 K, 30000 kPa): 937.2 ± 0.57 kg/m3; mass density (313.15 K, 35000 kPa): 940.87 ± 0.57 kg/m3
CCCCO [butan-1-ol] | 809.28 ± 0.52 | 813.04 ± 0.52 | 816.54 ± 0.53 | 819.83 ± 0.55 | 822.97 ± 0.56 | 826 ± 0.57 | 828.99 ± 0.58 | 831.99 ± 0.6 | 801.9 ± 0.52 | 806 ± 0.53 | 809.77 ± 0.54 | 813.26 ± 0.55 | 816.52 ± 0.56 | 819.61 ± 0.57 | 822.58 ± 0.59 | 825.48 ± 0.6 | 794.32 ± 0.52 | 798.42 ± 0.53 | 802.22 ± 0.54 | 805.8 ± 0.55 | mass density (313.15 K, 20000 kPa): 809.2 ± 0.56 kg/m3; mass density (313.15 K, 25000 kPa): 812.49 ± 0.58 kg/m3; mass density (313.15 K, 30000 kPa): 815.73 ± 0.59 kg/m3; mass density (313.15 K, 35000 kPa): 818.97 ± 0.61 kg/m3
CCO [ethanol] | 788.94 ± 0.51 | 793.35 ± 0.52 | 797.51 ± 0.53 | 801.44 ± 0.54 | 805.18 ± 0.55 | 808.74 ± 0.57 | 812.17 ± 0.58 | 815.49 ± 0.6 | 780.83 ± 0.51 | 785.54 ± 0.52 | 789.89 ± 0.53 | 793.92 ± 0.54 | 797.7 ± 0.56 | 801.28 ± 0.57 | 804.72 ± 0.59 | 808.06 ± 0.6 | 772.04 ± 0.51 | 776.85 ± 0.52 | 781.35 ± 0.53 | 785.59 ± 0.55 | mass density (313.15 K, 20000 kPa): 789.62 ± 0.56 kg/m3; mass density (313.15 K, 25000 kPa): 793.47 ± 0.58 kg/m3; mass density (313.15 K, 30000 kPa): 797.2 ± 0.59 kg/m3; mass density (313.15 K, 35000 kPa): 800.84 ± 0.61 kg/m3
CO [methanol] | 791.15 ± 0.51 | 795.92 ± 0.52 | 800.41 ± 0.53 | 804.64 ± 0.54 | 808.67 ± 0.55 | 812.52 ± 0.56 | 816.25 ± 0.58 | 819.89 ± 0.59 | 781.84 ± 0.51 | 786.9 ± 0.52 | 791.61 ± 0.53 | 796.01 ± 0.54 | 800.14 ± 0.56 | 804.05 ± 0.57 | 807.78 ± 0.58 | 811.37 ± 0.6 | 772.35 ± 0.51 | 777.48 ± 0.52 | 782.37 ± 0.53 | 786.99 ± 0.55 | mass density (313.15 K, 20000 kPa): 791.38 ± 0.56 kg/m3; mass density (313.15 K, 25000 kPa): 795.59 ± 0.57 kg/m3; mass density (313.15 K, 30000 kPa): 799.69 ± 0.59 kg/m3; mass density (313.15 K, 35000 kPa): 803.73 ± 0.61 kg/m3
CCCCCO [pentan-1-ol] | 815.25 ± 0.62 | 818.83 ± 0.64 | 822.19 ± 0.66 | 825.37 ± 0.68 | 828.41 ± 0.7 | 831.36 ± 0.72 | 834.24 ± 0.74 | 837.11 ± 0.76 | 808.05 ± 0.62 | 811.93 ± 0.64 | 815.5 ± 0.66 | 818.82 ± 0.68 | 821.92 ± 0.7 | 824.88 ± 0.72 | 827.74 ± 0.75 | 830.55 ± 0.77 | 800.67 ± 0.62 | 804.61 ± 0.64 | 808.28 ± 0.66 | 811.75 ± 0.68 | mass density (313.15 K, 20000 kPa): 815.06 ± 0.71 kg/m3; mass density (313.15 K, 25000 kPa): 818.26 ± 0.73 kg/m3; mass density (313.15 K, 30000 kPa): 821.41 ± 0.75 kg/m3; mass density (313.15 K, 35000 kPa): 824.56 ± 0.77 kg/m3
CCCO [propan-1-ol] | 803.17 ± 0.52 | 807.25 ± 0.53 | 811.02 ± 0.54 | 814.54 ± 0.55 | 817.87 ± 0.56 | 821.05 ± 0.57 | 824.15 ± 0.59 | 827.21 ± 0.6 | 795.52 ± 0.52 | 799.83 ± 0.53 | 803.8 ± 0.54 | 807.49 ± 0.55 | 810.95 ± 0.56 | 814.23 ± 0.58 | 817.38 ± 0.59 | 820.48 ± 0.61 | 787.3 ± 0.52 | 791.61 ± 0.53 | 795.67 ± 0.54 | 799.52 ± 0.55 | mass density (313.15 K, 20000 kPa): 803.19 ± 0.57 kg/m3; mass density (313.15 K, 25000 kPa): 806.72 ± 0.58 kg/m3; mass density (313.15 K, 30000 kPa): 810.15 ± 0.6 kg/m3; mass density (313.15 K, 35000 kPa): 813.5 ± 0.61 kg/m3
